Experimental data: ChEMBL document CHEMBL1201862, “PubChem BioAssay data set” (2004)
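Test compounds were applied to cells in 96-well plates for 48 hours at 5 doses. The concentration for 50% growth inhibition is given as GI50.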 Active and inactive are the calls of the source. Cut-off read from the data, not from the text of the source: active = GI50 up to about 1.1 µM and inactive = higher.

Key:
Assay in all cases: inhibition of tumour cell growth, NCI panel, 48 h
A498 = test system: A498
ACHN = test system: ACHN
CAKI-1 = test system: CAKI-1
EKVX = test system: EKVX
HL-60 = test system: HL-60
HT-29 = test system: HT-29
Hs-578T = test system: Hs-578T
IGROV-1 = test system: IGROV-1
K562 = test system: K562
LOX IMVI = test system: LOX IMVI
MCF7 = test system: MCF7
NCI/ADR-RES = test system: NCI/ADR-RES
OVCAR-8 = test system: OVCAR-8
RXF 393 = test system: RXF 393
SF-539 = test system: SF-539
SK-MEL-28 = test system: SK-MEL-28
UO-31 = test system: UO-31
CCRF-CEM = test system: CCRF-CEM

Row | Structure (SMILES) | GI50 (A498) | GI50 (ACHN) | GI50 (CAKI-1) | GI50 (EKVX) | GI50 (HL-60) | GI50 (HT-29) | GI50 (Hs-578T) | GI50 (IGROV-1) | GI50 (K562) | GI50 (LOX IMVI) | GI50 (MCF7) | GI50 (NCI/ADR-RES) | GI50 (OVCAR-8) | GI50 (RXF 393) | GI50 (SF-539) | GI50 (SK-MEL-28) | GI50 (UO-31) | GI50 (CCRF-CEM)
1 | N=C1OC(c2c[nH]c3ccc(OCc4ccccc4)cc23)C(O)=C1O (stereo not given) | 59.2 µM (inactive) | > 100 µM (inactive) | > 100 µM (inactive) | > 100 µM (inactive) | 71.1 µM (inactive) | > 100 µM (inactive) | > 100 µM (inactive) | > 100 µM (inactive) | > 100 µM (inactive) | > 100 µM (inactive) | > 100 µM (inactive) | > 100 µM (inactive) | > 100 µM (inactive) | > 100 µM (inactive) | > 100 µM (inactive) | > 100 µM (inactive) | > 100 µM (inactive) | –
2 | O=c1cc(-c2ccccc2)oc2c1ccc1nc3ccccc3c(O)c12 | 27.5 µM (inactive) | 43.5 µM (inactive) | 60.7 µM (inactive) | > 100 µM (inactive) | 59.7 µM (inactive) | > 100 µM (inactive) | 59.4 µM (inactive) | > 100 µM (inactive) | > 100 µM (inactive) | 12.5 µM (inactive) | 36.4 µM (inactive) | 42.4 µM (inactive) | 80.5 µM (inactive) | 31.6 µM (inactive) | 33 µM (inactive) | > 100 µM (inactive) | 80.2 µM (inactive) | 54.6 µM (inactive)
3 | Cc1ccc(CC(Cc2ccc(C)cc2C(=O)O)C(=O)O)cc1 (stereo not given) | > 100 µM (inactive) | > 100 µM (inactive) | > 100 µM (inactive) | > 100 µM (inactive) | > 100 µM (inactive) | > 100 µM (inactive) | > 100 µM (inactive) | > 100 µM (inactive) | – | > 100 µM (inactive) | > 100 µM (inactive) | > 100 µM (inactive) | > 100 µM (inactive) | > 100 µM (inactive) | > 100 µM (inactive) | > 100 µM (inactive) | > 100 µM (inactive) | > 100 µM (inactive)
4 | O=[N+]([O-])c1ccc(Cc2nc3cc4ccccc4cc3[nH]2)cc1C(F)(F)F | 17.7 µM (inactive) | 15.8 µM (inactive) | 11.6 µM (inactive) | 25.8 µM (inactive) | 10 µM (inactive) | 14.3 µM (inactive) | 11.6 µM (inactive) | – | 6.56 µM (inactive) | 18.5 µM (inactive) | 15.5 µM (inactive) | 11.4 µM (inactive) | 19 µM (inactive) | 13.2 µM (inactive) | 16.2 µM (inactive) | 24.2 µM (inactive) | 15.8 µM (inactive) | 24.3 µM (inactive)
5 | CN(NC(=O)c1cccs1)C1=NCCCCN1 | > 100 µM (inactive) | > 100 µM (inactive) | – | > 100 µM (inactive) | > 100 µM (inactive) | > 100 µM (inactive) | > 100 µM (inactive) | > 100 µM (inactive) | > 100 µM (inactive) | > 100 µM (inactive) | > 100 µM (inactive) | > 100 µM (inactive) | > 100 µM (inactive) | > 100 µM (inactive) | > 100 µM (inactive) | > 100 µM (inactive) | > 100 µM (inactive) | > 100 µM (inactive)
6 | CCC1=NC(N/N=C/c2ccccc2O)=N/C1=C\c1ccccc1O | 26.7 µM (inactive) | 4.11 µM (inactive) | 19.6 µM (inactive) | 10.2 µM (inactive) | 4.53 µM (inactive) | 4.81 µM (inactive) | 23.9 µM (inactive) | 11.5 µM (inactive) | 12.2 µM (inactive) | 5.61 µM (inactive) | 5.52 µM (inactive) | 2.68 µM (inactive) | 8.57 µM (inactive) | 18.3 µM (inactive) | – | 23.7 µM (inactive) | 2.7 µM (inactive) | 3.94 µM (inactive)
7 | COc1cc([C@@H]2c3cc4c(cc3[C@@H](Nc3ccc([N+](=O)[O-])cc3C(=O)c3ccccc3)[C@H]3COC(=O)[C@H]23)OCO4)cc(OC)c1OC | 0.415 µM (active) | 0.304 µM (active) | 0.381 µM (active) | > 100 µM (inactive) | 0.211 µM (active) | 0.32 µM (active) | 5.05 µM (inactive) | 0.5 µM (active) | 0.156 µM (active) | 0.281 µM (active) | 0.26 µM (active) | 0.587 µM (active) | 0.515 µM (active) | 0.573 µM (active) | 0.201 µM (active) | – | 0.23 µM (active) | 0.391 µM (active)
